Experiments:
Assay in all cases: relative viability (nuclei count vs DMSO), 5 days (fraction); higher = more cells survive
Seliciclib + AZD7762 = compound: CC[C@H](CO)Nc1nc(NCc2ccccc2)c2ncn(C(C)C)c2n1 [Seliciclib] + NC(=O)Nc1cc(-c2cccc(F)c2)sc1C(=O)N[C@H]1CCCNC1 [AZD7762] (partner 0.2 µM)
Outline: (§1)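 Lung cancer cell lines in 1536-well plates got either a single drug or a fixed anchor-drug dose together with five library-drug doses (not always all listed) in √10 steps, by pin tool, on the day after seeding. Nuclei were counted after 5 days, and relative viability is the treated-to-vehicle ratio of nuclei counts. Values are medians of duplicate plates.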

Seliciclib + Alpelisib = compound: CC[C@H](CO)Nc1nc(NCc2ccccc2)c2ncn(C(C)C)c2n1 [Seliciclib] + Cc1nc(NC(=O)N2CCC[C@H]2C(N)=O)sc1-c1ccnc(C(C)(C)C(F)(F)F)c1 [Alpelisib] (partner 2 µM)
Outline: as §1

Seliciclib + Phenformin = compound: CC[C@H](CO)Nc1nc(NCc2ccccc2)c2ncn(C(C)C)c2n1 [Seliciclib] + N=C(N)NC(=N)NCCc1ccccc1 [Phenformin] (partner 250 µM)
Outline: as §1

Seliciclib + Pictilisib = compound: CC[C@H](CO)Nc1nc(NCc2ccccc2)c2ncn(C(C)C)c2n1 [Seliciclib] + CS(=O)(=O)N1CCN(Cc2cc3nc(-c4cccc5[nH]ncc45)nc(N4CCOCC4)c3s2)CC1 [Pictilisib] (partner 1 µM)
Outline: as §1

| Cell Line | relative viability (Seliciclib + AZD7762; first compound 0.08 µM) | relative viability (Seliciclib + AZD7762; first compound 0.253 µM) | relative viability (Seliciclib + AZD7762; first compound 0.8 µM) | relative viability (Seliciclib + AZD7762; first compound 2.53 µM) | relative viability (Seliciclib + AZD7762; first compound 8 µM) | relative viability (Seliciclib + Alpelisib; first compound 0.08 µM) | relative viability (Seliciclib + Alpelisib; first compound 0.253 µM) | relative viability (Seliciclib + Alpelisib; first compound 0.8 µM) | relative viability (Seliciclib + Alpelisib; first compound 2.53 µM) | relative viability (Seliciclib + Alpelisib; first compound 8 µM) | relative viability (Seliciclib + Phenformin; first compound 0.08 µM) | relative viability (Seliciclib + Phenformin; first compound 0.253 µM) | relative viability (Seliciclib + Phenformin; first compound 0.8 µM) | relative viability (Seliciclib + Phenformin; first compound 2.53 µM) | relative viability (Seliciclib + Phenformin; first compound 8 µM) | relative viability (Seliciclib + Pictilisib; first compound 0.08 µM) | relative viability (Seliciclib + Pictilisib; first compound 0.253 µM) | relative viability (Seliciclib + Pictilisib; first compound 0.8 µM) | relative viability (Seliciclib + Pictilisib; first compound 2.53 µM) | relative viability (Seliciclib + Pictilisib; first compound 8 µM) |
| --- | --- | --- | --- | --- | --- | --- | --- | --- | --- | --- | --- | --- | --- | --- | --- | --- | --- | --- | --- | --- |
| NCI-H2085 | 0.948 | 0.962 | 0.998 | 1.03 | 0.868 | 0.971 | 1.19 | 0.984 | 0.926 | 0.809 | 0.714 | 0.658 | 0.692 | 0.71 | 0.611 | 0.504 | 0.533 | 0.394 | 0.493 | 0.425 |
| NCI-H2087 | 1.28 | 1.46 | 1.33 | 1.24 | 1.11 | 1.08 | 1.21 | 1.06 | 1.09 | 0.815 | 0.537 | 0.495 | 0.411 | 0.41 | 0.385 | 1.03 | 1.12 | 0.508 | 0.813 | 0.832 |
| NCI-H2126 | 1.04 | 0.987 | 0.994 | 0.822 | 0.909 | 0.681 | 0.698 | 0.753 | 0.749 | 0.673 | 0.518 | 0.489 | 0.518 | 0.359 | 0.467 | 0.507 | 0.548 | 0.456 | 0.423 | 0.467 |
| NCI-H2170 | 0.841 | – | 0.877 | 0.979 | 0.921 | 0.801 | 0.585 | 0.824 | 0.904 | 0.834 | 0.393 | 0.489 | 0.354 | 0.436 | 0.411 | 0.306 | 0.255 | 0.286 | 0.243 | 0.336 |
| NCI-H2347 | 0.817 | 0.759 | 0.745 | 0.763 | 0.865 | 1.05 | 1.04 | 0.757 | 1.03 | 0.805 | 0.536 | 0.397 | 0.319 | 0.298 | 0.408 | 0.645 | 0.6 | 0.321 | 0.829 | 0.448 |
| NCI-H2405 | 0.8 | 0.757 | 0.831 | 0.584 | 0.648 | 0.718 | 0.698 | 0.642 | 0.689 | 0.729 | 0.362 | 0.399 | 0.319 | 0.324 | 0.355 | 0.462 | 0.43 | 0.314 | 0.288 | 0.35 |
| NCI-H3122 | 0.935 | 0.939 | 0.915 | 0.959 | 0.897 | 0.762 | 0.763 | 0.753 | 0.765 | 0.777 | 0.374 | 0.439 | 0.368 | 0.384 | 0.353 | 0.607 | 0.63 | 0.432 | 0.509 | 0.506 |
| PC-3 [JPC-3] | 0.994 | 1 | 0.77 | 0.617 | 0.718 | 1.02 | 1.07 | 0.968 | 0.997 | 0.904 | 0.477 | 0.459 | 0.453 | 0.49 | 0.433 | 0.825 | 0.954 | 0.652 | 0.712 | 0.652 |
| PC-14 | 0.358 | 0.35 | 0.358 | 0.354 | 0.331 | 0.86 | 0.871 | 0.878 | 0.909 | 0.854 | 0.665 | 0.431 | 0.553 | 0.463 | 0.319 | 0.622 | 0.67 | 0.69 | 0.808 | 0.513 |
| RERF-LC-KJ | 0.861 | 0.894 | 0.992 | 0.837 | 0.789 | 0.745 | 0.761 | 0.814 | 0.973 | 0.792 | 0.44 | 0.432 | 0.401 | 0.44 | 0.345 | 0.431 | 0.511 | 0.633 | 0.59 | 0.443 |

— the supplement of paper PMC10307832
